We go through 21 compounds from patent US12187713B2, “Immunomodulators, compositions and methods thereof” (Betta Pharmaceuticals Co., Ltd, priority 2019, dated 2025).

Sequence of PD-1/PD-L1 (Q9NZQ7 19-238): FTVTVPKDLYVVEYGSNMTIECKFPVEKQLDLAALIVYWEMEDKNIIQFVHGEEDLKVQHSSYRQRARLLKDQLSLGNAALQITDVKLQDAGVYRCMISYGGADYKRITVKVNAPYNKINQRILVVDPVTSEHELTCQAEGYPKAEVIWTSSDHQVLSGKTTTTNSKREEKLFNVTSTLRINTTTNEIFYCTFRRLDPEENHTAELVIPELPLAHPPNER

One test has as its target PD-1/PD-L1 (Homo sapiens (Human), UniProt Q9NZQ7). Briefly: PD-1/PD-L1 Binding Assay (Alphascreen). The conditions noted are these: numeric values. Summed up:
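PD-1/PD-L1 binding detected by anti-6×His acceptor and streptavidin donor beads after 120 min in the dark at 25 °C. Beforehand, the two proteins were incubated 15 min at 25 °C with inhibitor at 0.015–300 nM (1% DMSO). IC50 comes from a log concentration–response curve.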
As a reminder, the IC50 is the point on the concentration scale where inhibition reaches its midpoint. Low readings indicate greater potency, high ones weaker potency. `Cc1c(-c2nc3cc(CNCCO)c(OCc4ccc(C#N)nc4)cc3o2)cccc1-c1cccc(-c2nc3cc(CN4CCC[C@H]4C(=O)O)c(OC(F)F)cc3o2)c1C` [Example 119, ((2-(3′-(6-((6-cyanopyridin-3-yl)methoxy)-5-(((2-hydroxyethyl)amino)methyl)benzo[d]oxazol-2-yl)-2,2′-dimethyl-[1,1′-biphenyl]-3-yl)-6-(difluoromethoxy)benzo[d]oxazol-5-yl)methyl)-L-proline] gave a half-maximal inhibitory concentration (IC50) of 1.9 nM.
For the compound `Cc1c(-c2nc3cc(CN4CC(C)(C)C4)c(OC(F)F)cc3o2)cccc1-c1cccc(-c2nc3cc(CN4CCC[C@H]4C(=O)O)c(OC(F)F)cc3o2)c1C#N` [Example 128, ((2-(2-cyano-3′-(6-(difluoromethoxy)-5-((3,3-dimethylazetidin-1-yl)methyl)benzo[d]oxazol-2-yl)-2′-methyl-[1,1′-biphenyl]-3-yl)-6-(difluoromethoxy)benzo[d]oxazol-5-yl)methyl)-L-proline], the IC50 was 0.14 nM. Compared with the last compound, the IC50 is about 14-fold lower.
`Cc1c(-c2c[nH]c([C@@H]3CCCN3)n2)cccc1-c1cccc(-c2nc3cc(CN4CCC[C@H]4C(=O)O)c(OC(F)F)cc3o2)c1C` [Example 247, ((6-(difluoromethoxy)-2-(2,2′-dimethyl-3′-(2-((S)-pyrrolidin-2-yl)-1H-imidazol-4-yl)-[1,1′-biphenyl]-3-yl)benzo[d]oxazol-5-yl)methyl)-L-proline] displayed a concentration for half-maximal inhibition (IC50) of 5.2 nM.
Compound `Cc1c(-c2ccc(C3CCCN3)cc2)cccc1-c1cccc(-c2nc3cc(CN4CCC[C@H]4C(=O)O)c(OC(F)F)cc3o2)c1C` (stereo partly drawn) [Example 255, ((6-(difluoromethoxy)-2-(2,2′-dimethyl-4″- (pyrrolidin-2-yl)-[1,1′:3′,1″-terphenyl]-3-yl)benzo[d]oxazol-5-yl)methyl)-L-proline] came in with an IC50 of 2.3 nM.
The compound `Cc1c(-c2nc3ccc(CN4CCCC4)cn3n2)cccc1-c1cccc(-c2nc3cc(CN4CCC[C@H]4C(=O)O)c(OC(F)F)cc3o2)c1C` [Example 305, ((6-(difluoromethoxy)-2-(2,2′-dimethyl-3′-(6-(pyrrolidin-1-ylmethyl)-[1,2,4]triazolo[1,5-a]pyridin-2-yl)-[1,1′-biphenyl]-3-yl)benzo[d]oxazol-5-yl)methyl)-L-proline] returned a 50% inhibitory concentration (IC50) of 0.87 nM.
Compound `Cc1c(-c2nc3cc(CNCC4(CO)CC(F)(F)C4)c(OC(F)F)cc3o2)cccc1-c1cccc(-c2nc3cc(CN4CCC[C@H]4C(=O)O)c(OC(F)F)cc3o2)c1C` [Example 73, ((2-(3′-(5-((((3,3-difluoro-1-(hydroxymethyl)cyclobutyl)methyl)amino)methyl)-6-(difluoromethoxy)benzo[d]oxazol-2-yl)-2,2′-dimethyl-[1,1′-biphenyl]-3-yl)-6-(difluoromethoxy)benzo[d]oxazol-5-yl)methyl)-L-proline] returned an IC50 of 0.42 nM.
`Cc1c(-c2nc3cc(CN4CCC[C@H]4C(=O)O)c(OC(F)F)cc3o2)cccc1-c1cccc(-c2nc3cc(CN4CC(C)(C)C4)c(OC(F)F)cc3o2)c1C#N` [Example 4, ((2-(2′-cyano-3′-(6-(difluoromethoxy)-5-((3,3-dimethylazetidin-1-yl)methyl)benzo[d]oxazol-2-yl)-2-methyl-[1,1′-biphenyl]-3-yl)-6-(difluoromethoxy)benzo[d]oxazol-5-yl)methyl)-L-proline] had an IC50 of 1.4 nM.
Compound `Cc1c(-c2nc3cc(CN4CC5CC4C5)c(OC(F)F)cc3o2)cccc1-c1cccc(-c2nc3cc(CN4CCC[C@H]4C(=O)O)c(OC(F)F)cc3o2)c1C` [Example 71, ((2-(3′-(5-((2-azabicyclo[2.1.1]hexan-2-yl)methyl)-6-(difluoromethoxy)benzo[d]oxazol-2-yl)-2,2′-dimethyl-[1,1′-biphenyl]-3-yl)-6-(difluoromethoxy)benzo[d]oxazol-5-yl)methyl)-L-proline] registered an IC50 of 0.37 nM.

The same test, now with this note: range symbols.
In turn, `COc1nc(-c2cccc(-c3cccc(-c4nc5cc(CN6CCC[C@@H]6C(=O)O)c(OC(F)F)cc5o4)c3C)c2C)ccc1CN1CC[C@H](C)C1` [Example 273, ((6-(difluoromethoxy)-2-(3′-(6-methoxy-5-(((S)-3-methylpyrrolidin-1-yl)methyl)pyridin-2-yl)-2,2′-dimethyl-[1,1′-biphenyl]-3-yl)benzo[d]oxazol-5-yl)methyl)-D-proline] displayed an IC50 of 5 to 50 nM.
`Cc1c(-c2nc3cc(CN4CCC[C@@H]4C(=O)O)c(OC(F)F)cc3o2)cccc1-c1cccc(-c2nc3cc(CN4CCC(C#N)C4)cc(C#N)c3o2)c1C` (stereo partly drawn) [Example 143, ((2-(3′-(7-cyano-5-((3-cyanopyrrolidin-1-yl)methyl)benzo[d]oxazol-2-yl)-2,2′-dimethyl-[1,1′-biphenyl]-3-yl)-6-(difluoromethoxy)benzo[d]oxazol-5-yl)methyl)-D-proline]: the half-inhibitory concentration (IC50) lay within 0.1 to 5 nM.
Take `Cc1c(-c2nc3cc(CN4CCC[C@H]4C(=O)O)c(OC(F)F)cc3o2)cccc1-c1cccc(-c2nc3cc(CN(C(C)CO)C(C)CO)cc(C#N)c3o2)c1C` (stereo partly drawn) [Example 147, ((2-(3′-(5-((bis(1-hydroxypropan-2-yl)amino)methyl)-7-cyanobenzo[d]oxazol-2-yl)-2,2′-dimethyl-[1,1′-biphenyl]-3-yl)-6-(difluoromethoxy)benzo[d]oxazol-5-yl)methyl)-L-proline]: the concentration for half-maximal inhibition (IC50) was 0.1 to 5 nM.
In the case of `Cc1c(-c2nc3cc(CN4CCC[C@H]4C(=O)O)c(OC(F)F)cc3o2)cccc1-c1cccc(-c2nc3cc(CN4CC(C)(CN(C)C)C4)cc(C#N)c3o2)c1C` [Example 159, ((2-(3′-(7-cyano-5-((3-((dimethylamino)methyl)-3-methylazetidin-1-yl)methyl)benzo[d]oxazol-2-yl)-2,2′-dimethyl-[1,1′-biphenyl]-3-yl)-6-(difluoromethoxy)benzo[d]oxazol-5-yl)methyl)-L-proline], the IC50 was 0.1 to 5 nM.
Same read-out and setting: then `COc1nc(-c2cccc(-c3cccc(-c4nc5cc(CN6CCC[C@H]6C(=O)O)c(OC(F)F)cc5o4)c3C)c2C)ccc1CN1CCC[C@H]1C` [Example 279, ((6-(difluoromethoxy)-2-(3′-(6-methoxy-5-(((R)-2-methylpyrrolidin-1-yl)methyl)pyridin-2-yl)-2,2′-dimethyl-[1,1′-biphenyl]-3-yl)benzo[d]oxazol-5-yl)methyl)-L-proline], with 0.1 to 5 nM; and `Cc1c(-c2nc3cc(CN4CCC4CO)ccc3o2)cccc1-c1cccc(-c2nc3cc(CN4CCC[C@H]4C(=O)O)c(OC(F)F)cc3o2)c1C` (stereo partly drawn) [Example 105, ((6-(difluoromethoxy)-2-(3′-(5-((2-(hydroxymethyl)azetidin-1-yl)methyl)benzo[d]oxazol-2-yl)-2,2′-dimethyl-[1,1′-biphenyl]-3-yl)benzo[d]oxazol-5-yl)methyl)-L-proline], with 0.1 to 5 nM; and `Cc1c(-c2nc3cc(CN4CCC[C@@H]4C(=O)O)c(OC(F)F)cc3o2)cccc1-c1cccc(-c2nc3cc(CN4CCC(F)C4)cc(C#N)c3o2)c1C` (stereo partly drawn) [Example 163, ((2-(3′-(7-cyano-5-((3-fluoropyrrolidin-1-yl)methyl)benzo[d]oxazol-2-yl)-2,2′-dimethyl-[1,1′-biphenyl]-3-yl)-6-(difluoromethoxy)benzo[d]oxazol-5-yl)methyl)-D-proline], with 5 to 50 nM.
`Cc1c(-c2nc3cc(CN4CC[C@@H](C(=O)O)C4)c(OC(F)F)cc3o2)cccc1-c1cccc(-c2nc3cc(CN4CCC(C)C4)cc(C(F)(F)F)c3o2)c1C` (stereo partly drawn) [Example 91, (3R)-1-((6-(difluoromethoxy)-2-(2,2′-dimethyl-3′-(5-((3-methylpyrrolidin-1-yl)methyl)-7-(trifluoromethyl)benzo [d]oxazol-2-yl)-[1,1′-biphenyl]-3-yl)benzo[d]oxazol-5-yl)methyl)pyrrolidine-3-carboxylic acid] had an IC50 of 0.1 to 5 nM.
As for `COC1CN(Cc2cc3nc(-c4cccc(-c5cccc(-c6nc7cc(CN8CCC[C@H]8C(=O)O)c(OC(F)F)cc7o6)c5C)c4C)oc3cc2OC(F)F)C1` [Example 43, ((6-(difluoromethoxy)-2-(3′-(6-(difluoromethoxy)-5-((3-methoxyazetidin-1-yl)methyl)benzo[d]oxazol-2-yl)-2,2′-dimethyl-[1,1′-biphenyl]-3-yl)benzo[d]oxazol-5-yl)methyl)-L-proline], the half-maximal inhibitory concentration (IC50) lay within 5 to 50 nM.
Consider `Cc1c(-c2nc3cc(CN4CCC[C@@H]4C(=O)O)c(OC(F)F)cc3o2)cccc1-c1cccc(-c2nc3cc(CN4CCCC4)cc(C#N)c3o2)c1C` [Example 145, ((2-(3′-(7-cyano-5-(pyrrolidin-1-ylmethyl)benzo[d]oxazol-2-yl)-2,2′-dimethyl-[1,1′-biphenyl]-3-yl)-6-(difluoromethoxy)benzo[d]oxazol-5-yl)methyl)-D-proline], for which the IC50 lay within 0.1 to 5 nM.
On the same count and under the same terms, then `Cc1c(-c2nc3cc(CN4CC[C@@H](C(=O)O)C4)c(OC(F)F)cc3o2)cccc1-c1cccc(-c2nc3cc(CN4CCCC4)cc(C#N)c3o2)c1C` [Example 169, (R)-1-((2-(3′-(7-cyano-5-(pyrrolidin-1-ylmethyl)benzo[d]oxazol-2-yl)-2,2′-dimethyl-[1,1′-biphenyl]-3-yl)-6-(difluoromethoxy)benzo[d]oxazol-5-yl)methyl)pyrrolidine-3-carboxylic acid], with 0.1 to 5 nM; and `Cc1c(-c2nc3cc(CN4CCC[C@H]4C(=O)O)c(OC(F)F)cc3o2)cccc1-c1cccc(-c2nc3cc(CN4CC(C)C(N(C)C)C4)cc(C#N)c3o2)c1C` (stereo partly drawn) [Example 158, ((2-(3′-(7-cyano-5-((3-(dimethylamino)-4-methylpyrrolidin-1-yl)methyl)benzo[d]oxazol-2-yl)-2,2′-dimethyl-[1,1′-biphenyl]-3-yl)-6-(difluoromethoxy)benzo[d]oxazol-5-yl)methyl)-L-proline], with 0.1 to 5 nM.
For `Cc1c(-c2nc3cc(CN4CC(C)(C)C4)ccc3o2)cccc1-c1cccc(-c2nc3cc(CN4CCC[C@H]4C(=O)O)c(OC(F)F)cc3o2)c1C` [Example 312, ((6-(difluoromethoxy)-2-(3′-(5-((3,3-dimethylazetidin-1-yl)methyl)benzo[d]oxazol-2-yl)-2,2′-dimethyl-[1,1′-biphenyl]-3-yl)benzo[d]oxazol-5-yl)methyl)-L-proline], the IC50 is 0.1 to 5 nM.
